Measured values: patent US20250171459A1, “2-METHYL-4',5'-DIHYDROSPIRO[PIPERIDINE-4,7'-THIENO[2,3-C]PYRAN] DERIVATIVES AS INHIBITORS OF APOL1 AND METHODS OF USING SAME” (Vertex Pharmaceuticals Incorporated, priority 2022, published 2025)

target: T1, APOL1 (Homo sapiens, UniProt O14791); test: MultiTox-Fluor Multiplex Cytotoxicity Assay in tet-inducible APOL1 T-REx-HEK293 cells (cell rescue, ratio of dead to live cells); format: cell-based; conditions: tet-inducible transgenic APOL1 T-REx-HEK293 cell lines, 50 ng/mL tet, 24 hours; read-out: IP50 (i.e., IC50 for cell proliferation)
T1 sequence (O14791 1-398 S342G/I384M): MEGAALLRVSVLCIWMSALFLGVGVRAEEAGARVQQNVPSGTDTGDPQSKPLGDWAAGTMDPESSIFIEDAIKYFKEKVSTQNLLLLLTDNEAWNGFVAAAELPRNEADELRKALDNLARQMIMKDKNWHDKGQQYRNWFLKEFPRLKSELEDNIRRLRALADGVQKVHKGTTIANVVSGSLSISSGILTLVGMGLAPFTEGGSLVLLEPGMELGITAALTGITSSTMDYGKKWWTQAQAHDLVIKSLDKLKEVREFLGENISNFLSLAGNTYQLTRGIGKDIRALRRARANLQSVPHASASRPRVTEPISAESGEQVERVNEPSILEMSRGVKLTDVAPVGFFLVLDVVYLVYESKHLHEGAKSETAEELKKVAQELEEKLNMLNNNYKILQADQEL
Method in brief: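 T-REx-HEK293 cells with tet-inducible APOL1 were treated with compound (10 μM top, 10-point 3-fold dilution, duplicate) plus 50 ng/mL tetracycline for 24 h at 37° C, in DMEM with 2% tet-free FBS. MultiTox-Fluor protease signals gave a dead/live ratio, normalized to no tet (100% viability) and tet alone (0%).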

Compound	IC50
C[C@H]1C[C@@]2(CCN1Cc1cnn(CC(O)CC3(O)COC3)c1)OC[C@@H](O)c1cc(C(F)(F)F)sc12 (stereo partly drawn) [Compound 975]	< 100 nM
CCc1cc2c(s1)CCO[C@@]21CCN(CC(O)CC#N)[C@@H](C)C1 (stereo partly drawn) [Compound 280]	100 to 500 nM
Cc1cc2c(s1)CCO[C@@]21CCN(CC(O)C(N)=O)[C@@H](C)C1 (stereo partly drawn) [Compound 502]	100 to 500 nM
Cc1cccc(CN2CC[C@]3(C[C@@H]2C)OC[C@H](O)c2cc(Cl)sc23)n1 [Compound 808]	500 to 1000 nM
CCc1cc2c(s1)CCO[C@@]21CCN(C[C@H]2C[C@@H](NC(=O)c3ccc(=O)[nH]n3)C2)[C@@H](C)C1 [Compound 349]	< 100 nM
C[C@H]1C[C@@]2(CCN1Cc1ccc(S(C)(=O)=O)c(F)c1)OCCc1cc(Cl)sc12 [Compound 669]	100 to 500 nM
CCc1cc2c(s1)CCOC21CCN(Cc2cn(CCC(=O)NCC(C)O)nn2)CC1 (stereo not drawn) [Compound 1102]	500 to 1000 nM
C[C@@H]1C[C@]2(CCN1Cc1cnn(C)c1)OCCc1cc(Cl)sc12 (stereo in doubt) [Compound 630, (2R,4S)-2′-chloro-2-methyl-1-((1-methyl-1H-pyrazol-4-yl)methyl)-4′,5′-dihydrospiro[piperidine-4,7′-thieno[2,3-c]pyran]]	< 100 nM
C[C@H]1C[C@@]2(CCN1Cc1cnn(C[C@H](O)C(=O)N(C)C)c1)OC[C@@H](O)c1cc(C(F)(F)F)sc12 [Compound 998]	< 100 nM
C[C@H]1C[C@@]2(CCN1Cc1cn(C)nn1)OCCc1c2sc(Cl)c1CO [Compound 719]	100 to 500 nM
CCc1cc2c(s1)CCO[C@@]21CCN(Cc2ccon2)[C@@H](C)C1 [Compound 279, (2′S,4R)-2-ethyl-1′-(isoxazol-3-ylmethyl)-2′-methyl-spiro[6,7-dihydrothieno[3,2-c]pyran-4,4′-piperidine]]	< 100 nM
C[C@H]1C[C@@]2(CCN1Cc1ccc(OCC(=O)N3CCOCC3)cc1)OCCc1cc(Cl)sc12 [Compound 648]	< 100 nM
CC(C)C(O)Cn1cc(CN2CC[C@]3(C[C@@H]2C)OCCc2c3sc(C(F)(F)F)c2CO)cn1 (stereo partly drawn) [Compound 891, 1-[4-[[(2′S, 7R)-3-(hydroxymethyl)-2′-methyl-2-(trifluoromethyl)spiro[4,5-dihydrothieno[2,3-c]pyran-7,4′-piperidine]-1′-yl]methyl]pyrazol-1-yl]-3-methyl-butan-2-ol]	< 100 nM
CCc1cc2c(s1)CCO[C@@]21CCN(Cc2cn(CC(C)(CO)OC)nn2)[C@@H](C)C1 (stereo partly drawn) [Compound 110]	100 to 500 nM
CCc1cc2c(s1)CCO[C@@]21CCN(CC2CN(C(=O)C3C4COCC43)C2)[C@@H](C)C1 (stereo partly drawn) [Compound 451]	100 to 500 nM
COc1cccc(CN2CC[C@]3(C[C@@H]2C)OC[C@H](O)c2cc(Cl)sc23)n1 [Compound 782]	500 to 1000 nM
CCc1cc2c(s1)CCO[C@@]21CCN(C[C@H]2C[C@@H](NC(=O)c3ccc4[nH]nnc4c3)C2)[C@@H](C)C1 [Compound 358]	< 100 nM
C[C@H]1C[C@@]2(CCN1Cc1cnn(CC(O)C3CCCO3)c1)OCCc1c2sc(C(F)(F)F)c1CO (stereo partly drawn) [Compound 964]	< 100 nM
CCc1cc2c(s1)CCOC21CCN(Cc2cn[nH]c2)CC1 [Compound 1133]	100 to 500 nM
CCc1cc2c(s1)CCO[C@@]21CCN(C[C@H]2C[C@@H](NC(=O)[C@@H]3CCCO3)C2)[C@@H](C)C1 [Compound 369]	100 to 500 nM
C[C@H]1C[C@@]2(CCN1Cc1cnn(CC(O)C3(O)CCOCC3)c1)OC[C@@H](O)c1cc(C(F)(F)F)sc12 (stereo partly drawn) [Compound 978]	< 100 nM

Compound	IC50
CCCc1cc2c(s1)CCO[C@@]21CCN(Cc2cnn(C)c2)[C@@H](C)C1 [Compound 520]	< 100 nM
CCc1cc2c(s1)CCO[C@@]21CCN(Cc2ccc(N[C@H]3CC[C@H](O)C3)nc2)[C@@H](C)C1 [Compound 205]	< 100 nM
C[C@H]1C[C@@]2(CCN1Cc1cnn(CC(O)CC(C)(C)C#N)c1)OCCc1c2sc(C(F)(F)F)c1CO (stereo partly drawn) [Compound 963]	< 100 nM
C[C@H]1C[C@@]2(CCN1Cc1ccccn1)OCCc1c2sc(Cl)c1CO [Compound 758]	500 to 1000 nM
CCc1cc2c(s1)CCO[C@@]21CCN(CC2CN(C(=O)C3CCCCC3)C2)[C@@H](C)C1 [Compound 448]	100 to 500 nM
C[C@H]1C[C@@]2(CCN1Cc1cn(CC(C)(C)CO)nn1)OC[C@](O)(C(F)F)c1cc(Cl)sc12 [Compound 838]	500 to 1000 nM
C[C@H]1C[C@@]2(CCN1Cc1cnn(CCS(C)(=O)=O)c1)OCC(O)c1cc(C(F)(F)C(F)F)sc12 (single isomer, unassigned) [Compound 1013]	< 100 nM
CCc1cc2c(s1)CCO[C@@]21CCN(CC2CN(C(=O)C3COCCO3)C2)[C@@H](C)C1 (stereo partly drawn) [Compound 440]	< 100 nM
CCc1cc2c(s1)CCO[C@@]21CCN(Cc2c[nH]c(C)n2)[C@@H](C)C1 [Compound 288]	< 100 nM
CCc1cc2c(s1)CCO[C@@]21CCN(C[C@H]2C[C@@H](NS(=O)(=O)c3cnccc3Cl)C2)[C@@H](C)C1 [Compound 412]	< 100 nM
CCc1cc2c(s1)CCO[C@@]21CCN(C[C@H]2C[C@@H](NC(=O)C(C)S(C)(=O)=O)C2)[C@@H](C)C1 (stereo partly drawn) [Compound 341]	< 100 nM
CCc1cc2c(s1)CCO[C@@]21CCN(C[C@H]2C[C@@H](NC(=O)C3(c4ccc(F)cn4)CC3)C2)[C@@H](C)C1 [Compound 327]	100 to 500 nM
CCc1cc2c(s1)CCO[C@@]21CCN(Cc2cn(CC3(S(C)(=O)=O)CCCC3)nn2)[C@@H](C)C1 [Compound 157]	< 100 nM
COCc1cc2c(s1)[C@]1(CCN(Cc3cnn(CCS(C)(=O)=O)c3)[C@@H](C)C1)OCC2 [Compound 1017, (2′S, 7R)-2-(methoxymethyl)-2′-methyl-1′-[[1-(2-methylsulfonylethyl)pyrazol-4-yl]methyl]spiro[4,5-dihydrothieno[2,3-c]pyran-7,4′-piperidine]]	100 to 500 nM
CC(=O)N[C@H]1C[C@@H](CN2CC[C@]3(C[C@@H]2C)OCCc2cc(CC(F)F)sc23)C1 [Compound 558]	< 100 nM
CCc1cc2c(s1)CCOC21CCN(Cc2cnn(CCS(C)(=O)=O)c2)CC1 [Compound 1130]	100 to 500 nM
CCc1cc2c(s1)CCO[C@@]21CCN(C[C@H]2C[C@@H](NC(=O)C3CC(C)(O)C3)C2)[C@@H](C)C1 (stereo partly drawn) [Compound 344]	< 100 nM
C[C@H]1C[C@@]2(CCN1Cc1cnn(C[C@H](O)C(C)(C)O)c1)OCCc1c2sc(C(F)(F)F)c1CO [Compound 887, (2S)-1-[4-[[(2′S, 7R)-3-(hydroxymethyl)-2′-methyl-2-(trifluoromethyl)spiro[4,5-dihydrothieno[2,3-c]pyran-7,4′-piperidine]-1′-yl]methyl]pyrazol-1-yl]-3-methyl-butane-2,3-diol]	< 100 nM
CCc1cc2c(s1)CCO[C@@]21CCN(C[C@H]2C[C@@H](NC(=O)C3CC(=O)N(C)C3)C2)[C@@H](C)C1 (stereo partly drawn) [Compound 362]	100 to 500 nM
CCc1cc2c(s1)CCO[C@@]21CCN(Cc2cn(Cc3ccncn3)nn2)[C@@H](C)C1 [Compound 55]	100 to 500 nM
C[C@H]1C[C@@]2(CCN1Cc1cn(C(C)(C)CO)nn1)OCCc1c2sc(C(F)(F)F)c1CO [Compound 1000, 2-[4-[[(2′S, 7R)-3-(hydroxymethyl)-2′-methyl-2-(trifluoromethyl)spiro[4,5-dihydrothieno[2,3-c]pyran-7,4′-piperidine]-1′-yl]methyl]triazol-1-yl]-2-methyl-propan-1-ol]	500 to 1000 nM
